Bridge positions count the residues as written; N and C are the ends. Square brackets hold non-standard residues; d marks the D form. Peptide text beside a SMILES is read from it. NMeR = CN[C@@H](CCCNC(=N)N)C(=O)O; Pen = CC(C)(S)[C@H](N)C(=O)O
Assay: Simulated Intestinal Fluid (SIF) Stability Assay
Type: in vitro ADME
Conditions: for stability in simulated intestinal fluids (SIF): Cys substituted with Pen, compared to SEQ ID NO: 46 with Cys
Experimental: Simulated Intestinal Fluid (SIF) Stability Assay
Studies were carried out in simulated intestinal fluid (SIF) to evaluate gastric stability of the peptide molecules of the instant invention. SIF was prepared by adding 6.8 g of monobasic potassium phosphate and 10.0 g of pancreatin to 1.0 L of water. After dissolution, the pH was adjusted to 6.8 using NaOH. DMSO stocks (2 mM) were first prepared for the test compounds. Aliquots of the DMSO solutions were dosed into 6 individual tubes, each containing 0.5 mL of SIF, which had been pre-warmed to 37° C.
The final test compound concentration was 20 μM. The vials were kept in a benchtop Thermomixer® for the duration of the experiment. At each time point (0, 5, 10, 20, 40, and 60 minutes), 1.0 mL of acetonitrile containing 1% formic acid was added to one vial to terminate the reaction. Samples were stored at 4° C. until the end of the experiment. After the final timepoint was sampled, the tubes were mixed and then centrifuged at 3,000 rpm for 10 minutes. Aliquots of the supernatant were removed, diluted 1:1 into distilled water containing internal standard, and analyzed by LCMS/MS. Percent remaining at each time point was calculated based on the peak area response ratio of test to compound to internal standard. Time 0 was set to 100%, and all later time points were calculated relative to time 0. Half-lives were calculated by fitting to a first-order exponential decay equation using GraphPad. A small sampling of the results of these studies is provided and discussed in connection FIG. 3, above.

| stability in simulated intestinal fluids (SIF) | half-life in SIF (simulated intestinal fluid, pH 6.8, 37° C., N-Me-Arg substituted versus non-methylated variation) | SMILES |
| --- | --- | --- |
| increased stability significantly | – | CC(=O)N[C@H]1CSSC(C)(C)[C@@H](C(=O)N[C@H](CCCCN)C(N)=O)NC(=O)[C@H](CC(C)C)NC(=O)[C@H]([C@@H](C)O)NC(=O)[C@H](CC(=O)O)NC(=O)[C@H](CO)NC(=O)[C@H](CCCNC(=N)N)N(C)C1=O [SEQ ID NO: 55] (Ac-C[NMeR]SDTL[Pen][dK]-NH2; disulfide 1-7) |
| increased stability significantly | – | CC(=O)N[C@H]1CSSC(C)(C)[C@@H](C(=O)N[C@@H](CCC(=O)O)C(=O)N[C@H](CCCCN)C(N)=O)NC(=O)[C@H](CC(C)C)NC(=O)[C@H]([C@@H](C)O)NC(=O)[C@H](CC(=O)O)NC(=O)[C@H](CO)NC(=O)[C@H](CCCNC(=N)N)N(C)C1=O [SEQ ID NO: 74] (Ac-C[NMeR]SDTL[Pen]E[dK]-NH2; disulfide 1-7) |
| – | increased half-life substantially | CC(=O)N[C@H]1CSSC[C@@H](C(N)=O)NC(=O)[C@H](CC(C)C)NC(=O)[C@H]([C@@H](C)O)NC(=O)[C@H](CC(=O)O)NC(=O)[C@H](CO)NC(=O)[C@H](CCCNC(=N)N)N(C)C1=O [SEQ ID NO: 46] (Ac-C[NMeR]SDTLC-NH2; disulfide 1-7) |
| increased stability significantly | – | CC(=O)N[C@@H]1C(=O)N(C)[C@@H](CCCNC(=N)N)C(=O)N[C@@H](CO)C(=O)N[C@@H](CC(=O)O)C(=O)N[C@@H]([C@@H](C)O)C(=O)N[C@@H](CC(C)C)C(=O)N[C@H](C(=O)N[C@H](CCCCN)C(N)=O)C(C)(C)SSC1(C)C [SEQ ID NO: 93] (Ac-[Pen][NMeR]SDTL[Pen][dK]-NH2; disulfide 1-7) |

From US20200017549A1, “NOVEL a4B7 PEPTIDE ANTAGONISTS” (Protagonist Therapeutics, Inc., priority 2013, published 2020)
